Measurements published in patent US8372845B2, “Pyrazine derivatives as enac blockers” (Novartis AG, priority 2010, dated 2013).
pIC50: −log10 of the molar value. Where a name gives a salt, the structure may show the parent alone.

Legend:
[1] = Stability in human plasma; type: in vitro ADME; conditions: pooled human plasma (lithium heparin), 1 μM compound, 37° C., 1 hour incubation
Procedure: The stability of the compounds of the invention in human plasma may be measured as follows:
Stability in Human Plasma
Blood was taken from healthy volunteers in lithium heparin tubes and plasma was prepared by centrifugal separation of blood cells at 1500 g. Plasma from at least 3 individuals was pooled and used for compound stability determination.
Compounds were prepared in 100% DMSO at a concentration of 10 mM and serially diluted to a concentration of 100 μM. Incubations were performed at a final concentration of 1 μM and were initiated by addition of 3 μl of 100 μM compound stock solution into 297 μl plasma, pre-warmed in a water bath to 37° C., followed by brief vortex mixing. 50 μl aliquots of plasma were removed at 4 timepoints over a 1 hour incubation period and quenched immediately by protein precipitation achieved by addition of the aliquot of plasma to a pre-prepared 96 well plate containing 150 μl of acetonitrile containing an appropriate internal standard. Acetonitrile quenched samples were vortex mixed followed by centrifugation for 20 minutes at 1500 g to remove the precipitated proteins. Initial compound levels (at time=0 minutes) was established by spiking compound into pre-quenched plasma at the same concentration as used in the incubation. The supernatant was then removed, diluted 1:1 with water and analysed for compound remaining by liquid chromatography-tandem mass spectrometry (Waters Acquity HPLC, Applied Biosystems API4000). The plasma elimination rate constant of the compound was calculated by fitting the peak area ratio of compound:internal standard to an exponential decay function and the half life calculated by division of the natural log of 2 by the elimination rate constant (Microsoft Excel).

[2] = target: T1, epithelial sodium channel (ENaC) (Homo sapiens, UniProt P37088+P51168+P51170); assay: Short circuit current (ISC) measurements in Human Bronchial Epithelial cells (HBEC-ENaC); type: cell-based; conditions: inhibition of amiloride-sensitive ISC, HBECs at air-liquid interface, Ussing chamber, apical addition
T1 construct: host or cells: primary Human Bronchial Epithelial cells (HBECs), differentiated at air-liquid interface
T1 sequence (P37088 1-669): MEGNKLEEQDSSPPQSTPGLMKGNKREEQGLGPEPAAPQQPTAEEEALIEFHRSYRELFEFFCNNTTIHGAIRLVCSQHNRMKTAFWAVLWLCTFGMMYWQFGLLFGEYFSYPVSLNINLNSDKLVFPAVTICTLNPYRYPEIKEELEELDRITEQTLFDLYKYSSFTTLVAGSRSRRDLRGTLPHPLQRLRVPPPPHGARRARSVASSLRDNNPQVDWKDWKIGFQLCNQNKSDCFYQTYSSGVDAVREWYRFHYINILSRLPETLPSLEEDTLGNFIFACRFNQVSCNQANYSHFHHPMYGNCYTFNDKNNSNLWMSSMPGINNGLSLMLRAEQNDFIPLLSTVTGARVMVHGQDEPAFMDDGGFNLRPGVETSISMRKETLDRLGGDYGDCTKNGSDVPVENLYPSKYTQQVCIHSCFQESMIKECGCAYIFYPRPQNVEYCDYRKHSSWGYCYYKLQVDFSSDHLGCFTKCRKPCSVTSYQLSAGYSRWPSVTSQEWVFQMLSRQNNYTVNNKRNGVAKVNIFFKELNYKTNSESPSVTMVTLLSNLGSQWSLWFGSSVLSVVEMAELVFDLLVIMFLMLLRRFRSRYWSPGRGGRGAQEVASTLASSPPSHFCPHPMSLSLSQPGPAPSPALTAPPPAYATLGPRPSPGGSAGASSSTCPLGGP
T1 sequence (P51168 1-640): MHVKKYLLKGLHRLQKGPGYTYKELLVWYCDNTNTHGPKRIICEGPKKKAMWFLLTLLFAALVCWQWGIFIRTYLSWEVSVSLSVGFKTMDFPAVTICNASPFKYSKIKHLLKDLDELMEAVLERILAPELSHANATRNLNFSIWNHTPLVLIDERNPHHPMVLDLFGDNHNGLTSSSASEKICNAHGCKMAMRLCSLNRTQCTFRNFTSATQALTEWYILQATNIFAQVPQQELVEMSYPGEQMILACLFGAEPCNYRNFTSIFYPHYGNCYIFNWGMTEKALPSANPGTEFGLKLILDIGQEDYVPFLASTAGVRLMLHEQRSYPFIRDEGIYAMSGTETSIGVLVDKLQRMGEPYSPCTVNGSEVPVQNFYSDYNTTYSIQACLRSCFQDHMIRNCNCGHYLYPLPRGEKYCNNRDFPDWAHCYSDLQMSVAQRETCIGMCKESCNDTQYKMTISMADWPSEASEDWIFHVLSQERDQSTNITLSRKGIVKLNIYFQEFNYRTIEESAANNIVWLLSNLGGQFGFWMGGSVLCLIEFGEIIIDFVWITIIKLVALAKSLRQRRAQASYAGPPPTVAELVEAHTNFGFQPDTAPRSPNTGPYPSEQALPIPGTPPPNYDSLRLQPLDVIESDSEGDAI
T1 sequence (P51170 1-649): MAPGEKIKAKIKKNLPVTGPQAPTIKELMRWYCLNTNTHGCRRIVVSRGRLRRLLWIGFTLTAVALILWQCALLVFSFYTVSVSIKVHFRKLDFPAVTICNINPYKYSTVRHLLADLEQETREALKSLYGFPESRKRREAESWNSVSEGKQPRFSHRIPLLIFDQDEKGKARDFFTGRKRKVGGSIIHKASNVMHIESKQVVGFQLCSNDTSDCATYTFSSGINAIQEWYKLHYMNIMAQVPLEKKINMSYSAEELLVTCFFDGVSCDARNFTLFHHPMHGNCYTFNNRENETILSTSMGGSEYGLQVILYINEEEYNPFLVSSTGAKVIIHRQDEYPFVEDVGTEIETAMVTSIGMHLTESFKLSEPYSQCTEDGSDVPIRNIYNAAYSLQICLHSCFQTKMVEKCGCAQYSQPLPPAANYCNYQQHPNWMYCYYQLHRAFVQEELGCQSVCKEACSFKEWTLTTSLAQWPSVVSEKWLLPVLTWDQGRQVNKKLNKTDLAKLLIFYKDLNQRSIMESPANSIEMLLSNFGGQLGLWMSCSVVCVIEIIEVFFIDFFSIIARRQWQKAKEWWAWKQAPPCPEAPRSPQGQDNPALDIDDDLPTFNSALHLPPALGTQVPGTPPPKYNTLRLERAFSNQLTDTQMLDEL
Procedure: Human Bronchial Epithelial cells (HBECs) (Cambrex) were cultured under air-liquid interface conditions to provide a well differentiated mucociliary phenotype.
Medium was changed every 48 hours until cells were 90% confluent. […] Cells were maintained submerged for the first 7 days in culture, after which time they were exposed to an apical air interface for the remainder of the culture period. At this time, media was changed to DMEM:F12 media containing 2% v/v Ultroser G for the remainder of culture. Amphotericin B was removed from all media 3 feeds prior to use in the Ussing Chambers. Cells were used between days 7 and 21 after establishment of the apical-air interface. At all stages of culture, cells were maintained at 37° C. in 5% CO2 in an air incubator.
Short Circuit Current (ISC) Measurements
Snapwell inserts were mounted in Vertical Diffusion Chambers (Costar) and were bathed with continuously gassed Ringer solution (5% CO2 in O2; pH 7.4) maintained at 37° C. containing (in mM): 120 NaCl, 25 NaHCO3, 3.3 KH2PO4, 0.8 K2HPO4, 1.2 CaCl2, 1.2 MgCl2, and 10 glucose. The solution osmolarity was between 280 and 300 mOsmol/kg H2O for all physiological salt solutions used. Cells were voltage clamped to 0 mV (model EVC4000; WPI). RT was measured by applying a 1- or 2-mV pulse at 30-s intervals and calculating RT by Ohm's law. Data were recorded using a PowerLab workstation (ADInstruments).
Test compounds were prepared as a 10 mM stock solution in DMSO (95%). Serial 3-fold dilutions were freshly prepared in an appropriate vehicle (distilled H2O or Ringers solution). The initial concentration was added to the apical chamber as a 1000× concentrate in 5 μL, resulting in a final 1× concentration the 5 mL volume of the Ussing chamber. Subsequent additions of compound were added in a 3.3 μL volume of the 1000× serially diluted stock solution. At the completion of the concentration-response experiment, amiloride (10 μM) was added into the apical chamber to enable the total amiloride-sensitive current to be measured. An amiloride control IC50 was established at the start of each experiment.
Results are expressed as the mean % inhibition of the amiloride-sensitive ISC. […] Cell inserts were typically run in duplicate and the IC50 calculated on the mean % inhibition data.

| SMILES | half-life at 1 μM [1] [min] | pIC50 [2] |
| --- | --- | --- |
| Nc1nc(N)c(C(=O)/N=C2\NCC3(CCN(C(=O)CCc4ccc(OCC(=O)OCC(=O)OC5CCCCC5)cc4)CC3)N2)nc1Cl [Example 1.2, [4-(3-{2-[(E)-3,5-Diamino-6-chloro-pyrazine-2-carbonylimino]-1,3,8-triaza-spiro[4.5]dec-8-yl}-3-oxo-propyl)-phenoxy]-acetic acid cyclohexyl oxycarbonylmethyl ester] | 3 | 8.00 |
| CCCN(CCC)C(=O)COC(=O)C1(CNS(=O)(=O)c2cccc(C(=O)N3CCC4(CC3)CN/C(=N\C(=O)c3nc(Cl)c(N)nc3N)N4)c2)CCC1 [Example 5.0, 1-[(3-{2-[(E)-3,5-Diamino-6-chloro-pyrazine-2-carbonylimino]-1,3,8-triaza-spiro[4.5]decane-8-carbonyl}-benzenesulfonylamino)-methyl]-cyclobutanecarboxylic acid dipropylcarbamoylmethyl ester] | 5 | 7.92 |
| CCCN(CCC)C(=O)COC(=O)COc1ccc(CCC(=O)N2CCC3(CC2)CN/C(=N\C(=O)c2nc(Cl)c(N)nc2N)N3)cc1 [Example 2.0, [4-(3-{2-[(E)-3,5-Diamino-6-chloro-pyrazine-2-carbonylimino]-1,3,8-triaza-spiro[4.5]dec-8-yl}-3-oxo-propyl)-phenoxy]-acetic acid dipropylcarbamoylmethyl ester] | 1 | 7.49 |
| CCCN(CCC)C(=O)COC(=O)COc1ccc(CCC(=O)N2CCC3(CC2)CN/C(=N\C(=O)c2nc(Cl)c(N)nc2N)N3)cc1Cl [Example 3.0, [2-Chloro-4-(3-{2-[(E)-3,5-diamino-6-chloro-pyrazine-2-carbonylimino]-1,3,8-triaza-spiro[4.5]dec-8-yl}-3-oxo-propyl)-phenoxy]-acetic acid dipropylcarbamoylmethyl ester] | 2 | 7.96 |
| CCCN(CCC)C(=O)COC(=O)CCNS(=O)(=O)c1cccc(C(=O)N2CCC3(CC2)CN/C(=N\C(=O)c2nc(Cl)c(N)nc2N)N3)c1 [Example 1.0, 3-(3-{2-[(E)-3,5-Diamino-6-chloro-pyrazine-2-carbonylimino]-1,3,8-triaza-spiro[4.5]decane-8-carbonyl}-benzenesulfonylamino)-propionic acid dipropylcarbamoylmethyl ester succinate salt] | 2 | 7.77 |
| Nc1nc(N)c(C(=O)/N=C2\NCC3(CCN(C(=O)c4cccc(S(=O)(=O)NCCC(=O)OCC(=O)OC5CCCCC5)c4)CC3)N2)nc1Cl [Example 1.3, 3-(3-{2-[(E)-3,5-Diamino-6-chloro-pyrazine-2-carbonylimino]-1,3,8-triaza-spiro[4.5]decane-8-carbonyl}-benzenesulfonylamino)-propionic acid cyclohexyloxy carbonylmethyl ester] | 4 | 8.52 |
| CC(C)(C)OC(=O)COC(=O)COc1ccc(CCC(=O)N2CCC3(CC2)CN/C(=N\C(=O)c2nc(Cl)c(N)nc2N)N3)cc1 [Example 2.1, [4-(3-{2-[(E)-3,5-Diamino-6-chloro-pyrazine-2-carbonylimino]-1,3,8-triaza-spiro[4.5]dec-8-yl}-3-oxo-propyl)-phenoxy]-acetic acid tert-butoxycarbonylmethyl ester] | 5 | 7.52 |
